Data on ten molecules can be found in ChEMBL document CHEMBL1201862, “PubChem BioAssay data set” (2004).

Structures are written as SMILES.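 How tested: cells in 96-well plates exposed to compound for 48 hours at five concentrations. Here, GI50 denotes the concentration required for 50% inhibition of growth.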 Activity calls are given as the source filed them. No stated cut-off is given here; in the data, active = GI50 up to about 1.1 µM and inactive = higher. Bounds are passed on as bounds.

Among the test systems are UO-31; HCT-116; HT-29; IGROV-1; NCI-H460; DU-145; BT-549; ACHN; 786-0; SW-620; HOP-62; NCI-H23; SF-295; PC-3; UACC-62; OVCAR-3; SK-MEL-28; RPMI-8226; MCF7; LOX IMVI.
Holding throughout (assay): NCI tumour cell line growth inhibition, 48 h

With `O=C(O)c1cc(CCc2cc(O)ccc2O)ccc1O`, the GI50 in the test with UO-31, with HCT-116, in the test with HT-29, with IGROV-1, in the test on NCI-H460 and in the test with DU-145 was > 100 µM (inactive) each time. Besides, the GI50 in the test with BT-549 was > 100 µM (inactive); with ACHN, > 100 µM (inactive); with 786-0, > 100 µM (inactive); with SW-620, 39.2 µM (inactive); in the test with HOP-62, > 100 µM (inactive); with NCI-H23 it was > 100 µM (inactive). For the same molecule, the GI50 with SF-295, with PC-3, with UACC-62, with OVCAR-3, in the test with SK-MEL-28 and in the test on RPMI-8226 was > 100 µM (inactive) each time. Besides, the GI50 was > 100 µM (inactive) in the test with MCF7 and 32.1 µM (inactive) in the test on LOX IMVI.
As for `COc1nc(OC)nc(-c2cccc(F)c2)n1`, the GI50 is 16.6 µM (inactive) with UO-31; 16.7 µM (inactive) in the test on HCT-116; 17.1 µM (inactive) with HT-29; 16.1 µM (inactive) with IGROV-1; 14.9 µM (inactive) in the test on NCI-H460; 13.2 µM (inactive) with DU-145. The GI50 in the test on BT-549 is 14 µM (inactive); in the test with ACHN, 16.4 µM (inactive); with 786-0, 19 µM (inactive); with SW-620, 17.7 µM (inactive); in the test with HOP-62 it was 20.4 µM (inactive); in the test on NCI-H23, 12 µM (inactive). Further, the GI50 with SF-295 is 13.4 µM (inactive); in the test on PC-3, 19.3 µM (inactive); in the test with UACC-62 it was 8.51 µM (inactive); in the test on OVCAR-3, 13.8 µM (inactive); with SK-MEL-28, 19 µM (inactive); in the test with RPMI-8226, 10.8 µM (inactive). Moreover, the GI50 with MCF7 was 15.9 µM (inactive); in the test on LOX IMVI, 17 µM (inactive).
For the molecule `O=C1/C(=C/c2ccc3c(c2)OCO3)Sc2scc(-c3ccc(O)c(O)c3)[n+]21`, the GI50 is 2.29 µM (inactive) in the test with UO-31; 1.96 µM (inactive) in the test with HCT-116; 3.74 µM (inactive) in the test on HT-29; 2.7 µM (inactive) in the test with IGROV-1; 3.56 µM (inactive) in the test with NCI-H460; 4.44 µM (inactive) with DU-145. For the same molecule, the GI50 in the test with BT-549 is 2.04 µM (inactive); in the test with ACHN, 1.86 µM (inactive); with 786-0, 1.92 µM (inactive); in the test on SW-620 it was 1.99 µM (inactive); in the test with HOP-62 it was 6.44 µM (inactive); in the test with NCI-H23 it was 2.69 µM (inactive). Also, the GI50 with SF-295 was 10 µM (inactive); with PC-3, 4.38 µM (inactive); in the test on UACC-62 it was 2.67 µM (inactive); in the test on OVCAR-3 it was 4.61 µM (inactive); in the test with SK-MEL-28, 3.08 µM (inactive); with RPMI-8226 it was 1.71 µM (inactive). For the same molecule, the GI50 with MCF7 is 3.22 µM (inactive); in the test with LOX IMVI it was 2.34 µM (inactive).
With `COc1ccc(CC(N)c2ccc(OC)cc2)cc1` (stereo not given), the GI50 was 90.6 µM (inactive) in the test on UO-31; 92.9 µM (inactive) with HCT-116; 45.4 µM (inactive) in the test on HT-29; 66.7 µM (inactive) in the test with IGROV-1; 39.9 µM (inactive) with NCI-H460; > 100 µM (inactive) in the test with DU-145. Further, the GI50 in the test on BT-549, with ACHN, with 786-0, in the test with SW-620, with HOP-62 and in the test on NCI-H23 was > 100 µM (inactive) throughout. For the same molecule, the GI50 is > 100 µM (inactive) with SF-295; 42.8 µM (inactive) with PC-3; 71.3 µM (inactive) in the test with UACC-62; > 100 µM (inactive) in the test with OVCAR-3; 38.4 µM (inactive) in the test with SK-MEL-28; 28.1 µM (inactive) with RPMI-8226. In addition, the GI50 was 44.5 µM (inactive) in the test with MCF7 and 57.5 µM (inactive) with LOX IMVI.
Regarding `COc1ccc(N2C(=O)C3ON(C(C(N)=O)c4ccccc4)C(c4ccc(-c5ccccc5)cc4)C3C2=O)cc1` (stereo not given), the GI50 in the test on UO-31 was > 50 µM (inactive); with HCT-116 it was > 50 µM (inactive); in the test on HT-29, 24.8 µM (inactive); with IGROV-1, 48.8 µM (inactive); in the test on NCI-H460, > 50 µM (inactive); in the test with DU-145 it was > 50 µM (inactive). Further, the GI50 with BT-549, in the test on ACHN, with 786-0, with SW-620, with HOP-62 and with NCI-H23 was > 50 µM (inactive) each time. The GI50 is > 50 µM (inactive) in the test on SF-295; > 50 µM (inactive) with PC-3; > 50 µM (inactive) with UACC-62; > 50 µM (inactive) with OVCAR-3; > 50 µM (inactive) with SK-MEL-28; 16.8 µM (inactive) in the test on RPMI-8226. Also, the figures for the GI50 in the test with MCF7 and in the test with LOX IMVI were 31.3 µM (inactive) and 36.5 µM (inactive), respectively.
On to `O=C1CSC(c2ccc([N+](=O)[O-])cc2)N1c1nc(-c2ccc3c(c2)CCCC3)cs1` (stereo not given), for which the GI50 in the test with UO-31 is > 100 µM (inactive); in the test with HCT-116, > 100 µM (inactive); in the test with HT-29, > 100 µM (inactive); with IGROV-1 it was 25.1 µM (inactive); with NCI-H460, > 100 µM (inactive); with DU-145, > 100 µM (inactive). The GI50 with BT-549 was 94.6 µM (inactive); with ACHN it was > 100 µM (inactive); with 786-0 it was > 100 µM (inactive); in the test on SW-620, > 100 µM (inactive); with HOP-62 it was > 100 µM (inactive); in the test with NCI-H23 it was > 100 µM (inactive). The GI50 was > 100 µM (inactive) in the test with SF-295; > 100 µM (inactive) in the test on PC-3; 63.1 µM (inactive) in the test on UACC-62; > 100 µM (inactive) in the test on OVCAR-3; > 100 µM (inactive) in the test on SK-MEL-28; > 100 µM (inactive) with RPMI-8226. The GI50 in the test with MCF7 is 31.7 µM (inactive); in the test on LOX IMVI it was 25.1 µM (inactive).
For `CC(=O)C1=C(C)N(c2ccccc2)C2(O)C=CC(O)=C3C(=O)c4ccccc4C(=O)C312` (stereo not given), the GI50 with UO-31 is 16.3 µM (inactive); in the test with HCT-116 it was 8.15 µM (inactive); with HT-29, 4.7 µM (inactive); with IGROV-1, 8.91 µM (inactive); in the test on NCI-H460 it was 8.87 µM (inactive); in the test with DU-145, 9.04 µM (inactive). Further, the GI50 in the test with BT-549 was 13.2 µM (inactive); in the test on ACHN it was 11.4 µM (inactive); with 786-0, 20 µM (inactive); with SW-620, 7.64 µM (inactive); with HOP-62 it was 32.9 µM (inactive); in the test on NCI-H23, 15.8 µM (inactive). Besides, the GI50 in the test on SF-295 was 14.9 µM (inactive); in the test with PC-3, 17.8 µM (inactive); in the test with UACC-62, 15.6 µM (inactive); with OVCAR-3, 3.52 µM (inactive); with SK-MEL-28 it was 19 µM (inactive); in the test on RPMI-8226 it was 3.37 µM (inactive). The GI50 was 22.3 µM (inactive) in the test on MCF7 and 4.94 µM (inactive) with LOX IMVI.
With `CCOC(=O)C12CCC(c3c(C)cccc3C)(O1)C(C(=O)OC)=C2C(=O)OC` (stereo not given), the GI50 was > 10 µM (inactive) in the test on UO-31; 2.14 µM (inactive) with HCT-116; 0.748 µM (active) in the test with HT-29; 3.6 µM (inactive) with IGROV-1; 2.23 µM (inactive) in the test on NCI-H460; 4.24 µM (inactive) in the test on DU-145. Besides, the GI50 in the test with BT-549 is 4 µM (inactive); with ACHN it was > 8.49 µM (inactive); in the test on 786-0, 3.08 µM (inactive); with SW-620 it was 2.07 µM (inactive); in the test with HOP-62, 4.11 µM (inactive); with NCI-H23 it was 3.4 µM (inactive). For the same molecule, the GI50 in the test on SF-295 is 5.45 µM (inactive); with PC-3, 2.09 µM (inactive); with UACC-62 it was 4.73 µM (inactive); in the test on OVCAR-3 it was 0.889 µM (active); with SK-MEL-28, > 7.5 µM (inactive); with RPMI-8226 it was 3.92 µM (inactive). Besides, the GI50 in the test with MCF7 is 1.3 µM (inactive); in the test with LOX IMVI, 2.39 µM (inactive).
Turning to `[N-]=[N+]=Nc1cc(=O)n2c3c(cccc13)CCC2`, the GI50 with UO-31, in the test on HCT-116, with HT-29, in the test with IGROV-1, in the test on NCI-H460 and with DU-145 was > 100 µM (inactive) each time. The GI50 with BT-549, in the test with ACHN, in the test on 786-0, with SW-620, with HOP-62 and in the test on NCI-H23 was > 100 µM (inactive) throughout. In addition, the GI50 in the test with SF-295, in the test on PC-3, with UACC-62, in the test on OVCAR-3, with SK-MEL-28 and with RPMI-8226 was > 100 µM (inactive) throughout. Besides, the GI50 with MCF7 and with LOX IMVI was > 100 µM (inactive) throughout.
For the molecule `C=C(C)CNC(=S)N(N)c1ccc(OC)cc1`, the GI50 in the test with UO-31 was 52.6 µM (inactive); with HCT-116, > 100 µM (inactive); in the test with HT-29, 74.8 µM (inactive); in the test on IGROV-1, 58.6 µM (inactive); with NCI-H460, > 100 µM (inactive); in the test with DU-145, > 100 µM (inactive). Besides, the GI50 in the test on BT-549 was > 100 µM (inactive); in the test with ACHN it was 39.2 µM (inactive); with 786-0 it was > 100 µM (inactive); with SW-620 it was > 100 µM (inactive); in the test with HOP-62 it was > 100 µM (inactive); in the test on NCI-H23 it was > 100 µM (inactive). The GI50 with SF-295 is > 100 µM (inactive); with PC-3, > 100 µM (inactive); in the test on UACC-62 it was 24.2 µM (inactive); with OVCAR-3 it was > 100 µM (inactive); with SK-MEL-28 it was > 100 µM (inactive); in the test with RPMI-8226 it was > 100 µM (inactive). The GI50 in the test with MCF7 and in the test with LOX IMVI was > 100 µM (inactive) each time.
